Experimental data published in patent publication US20090227606A1, “Methods for Preventing or Treating Acute and Chronic Pain” (priority 2006, published 2009).
“Also recorded” adds a separate entry of the source.

Tests used:
GLAST mRNA = assay: Real Time RT-PCR of cultured astrocytes, GLAST mRNA; type: cell-based, rat
Method: (§1) After approximately 14 days (2 days after subplating into plates, DIV 14) astrocytes had formed a confluent monolayer. […] Phase contrast microscopy was then carried out in order to assess the morphology of cells after the various treatments. Length of astrocyte processes was quantified by measuring all processes in 2-3 phase contrast images/group by an independent observer, blinded to the treatment groups using Image J v1.34s (National Institutes of Health, Bethesda, Md.).
Total RNA was isolated from astrocyte cultures using the Qiagen RNeasy mini-kit (Qiagen Inc., Valencia, Calif.) according to the manufacturer's protocol for isolation of total RNA from animal cells. Reverse transcription (RT) was carried out using the high-capacity cDNA archive kit (Applied Biosystems, Foster City, Calif.) according to the vendor's protocol. Real-time RT-PCR reactions were carried out in a total reaction volume of 25 μL containing a final concentration of 1.5 U Platinum Taq DNA polymerase (Invitrogen Corporation, Carlsbad, Calif.); 20 mM Tris HCl (pH 8.4); 50 mM KCl; 3 mM MgCl2; 200 μM dGTP, dCTP, and dATP; 400 μM dUTP and 1 U of UDG (uracyl DNA glycosylase); 900 nM of forward and reverse primers; 300 nM Taqman probe; and 5 μL of cDNA (50 ng) from the RT step. The iCycler™ Multicolor Real-Time PCR detection system (Bio-Rad Laboratories, Hercules, Calif.) was used to quantify PCR product. The fluorescence and threshold values (CT) obtained were used to compare the relative amount of target mRNA in experimental groups to those of controls using the 2^−ΔΔC^T method (Livak, K. J. and T. D. Schmittgen. 2001. Methods 25:402-408). Each experiment was run twice and samples were run in duplicate. For each sample, the mean CT value for the control gene (GAPDH) was then subtracted from the mean CT value for the gene of interest (GLT-1, GLAST) to obtain a ΔCT value. […] The relative fold change from control was then expressed by calculation of 2^−ΔΔC^T for each sample and the results are expressed as the group mean fold change±SEM.

MIP-2 (CXCL2) = assay: ELISA of MIP-2 release from cultured astrocytes; type: cell-based, rat; conditions: seven days, LPS 1 μg/ml; propentofylline 1000 μM; db-cAMP 250 μM
Method: as §1
(§2) Standard ELISA was performed for quantitative determination of MCP-1 and MIP-2 protein in cell culture supernatant. Assays were carried out according to the manufacturer's specifications (Biosource, Camarillo, Calif.) using the sandwich enzyme immunoassay procedure. Optical density at 450 nm was obtained using the MRX Revelations program (Dynex Technologies, Chantilly, Va.) and relative protein concentrations were determined by comparing samples to the standard curve generated.

MCP-1 (CCL2) = assay: ELISA of MCP-1 release from cultured astrocytes; type: cell-based, rat; conditions: seven days
Method: as §1, §2

[1] = tested on: L5 spinal nerve transected rats; assay: Mechanical allodynia after L5 spinal nerve transection in rats; type: in vivo, rat
Method: Male Sprague Dawley rats (Harlan, Indianapolis, Ind.) weighing 150-175 g at the start of surgery were housed individually and maintained in a 12:12 light/dark cycle with ad libitum access to food and water. The animals were allowed to habituate to the housing facilities for 1 week before experiments began. Behavioral studies were performed in a quiet room between the hours of 7:00 and 10:00 A.M. The Institutional Animal Care and Use Committee at Dartmouth College approved all procedures in this study. Efforts were made to limit animal distress and use the minimum number of animals necessary to achieve statistical significance, in accord with guidelines set forth by the International Association for the Study of Pain.
Unilateral mononeuropathy was produced according to the method described by Colburn et al. (1999. Exp. Neurol. 157:289-304). Briefly, rats were anesthetized by inhalation of halothane in an O2 carrier (induction, 4%; maintenance, 2%). […] The L6 transverse process was partially removed, exposing the L4 and L5 spinal nerves. The L5 spinal nerve was identified, separated, lifted, and transected, followed by removal of a 3-mm distal segment of nerve to prevent reconnection. […]
Mechanical sensitivity to non-noxious stimuli was measured by applying 2 g and 12 g von Frey filaments (Stoelting, Wood Dale, Ill.) to the plantar surface of the ipsilateral hind paw (n=8-12/group). […]

GLT-1 = assay: Immunohistochemistry of rat lumbar spinal cord, GLT-1; type: in vivo; conditions: day 12 post-transection, ipsilateral vs contralateral
Method: For assessment of GFAP, GLT-1 and GLAST immunoreactivity, a separate group of rats (n=4/treatment) were anesthetized and transcardially perfused with 0.1 M PBS (phosphate-buffered saline), pH 7.4, followed by 4% paraformaldehyde in PBS on day 12 post-L5 spinal nerve transection. Lumbar spinal cord sections were identified, isolated, and processed as described previously (Colburn, R. W. et al. 1997. J. Neuroimmunol. 79:163-175). Free-floating, […] were cut in a cryostat and processed for immunofluorescence. Sections were blocked with 5% FBS/0.1% Triton-X 100 for 1 hour at room temperature (RT). For double immunofluorescence, spinal sections were incubated with a mixture of rabbit polyclonal anti-GLT-1 (1:500) or guinea pig anti-GLAST (1:5000, Chemicon, Temecula, Calif.), and mouse anti-GFAP G-A-5 (astrocyte marker, 1:400, Sigma Chemical Co., St. Louis, Mo.) in 3% FBS/0.1% triton-X 100/TBS over night at 4° C., washed, incubated in a mixture of goat anti-rabbit Alexa Fluor™-555 and goat anti-mouse Alexa Fluor™-488 (1:250, Molecular Probes, Eugene, Oreg.) secondary antibodies in 3% FBS/0.1% triton-X 100/TBS for 1 hour at RT. To control for nonspecific staining, control sections were incubated in the absence of primary antibodies. The sections were examined with a fluorescence microscope, and images were captured with a Q-Fire cooled camera. […]

Structure (SMILES): CCCn1cnc2c1c(=O)n(CCCCC(C)=O)c(=O)n2C [propentofylline]
- increase in GLAST mRNA (GLAST mRNA; both days 3 and 7): 1.5-2 fold
- GLAST mRNA level, in words (GLAST mRNA; propentofylline 10, 100, 1000 μM, db-cAMP 250 μM, relative to GAPDH): enhancement of GLT-1 and GLAST mRNA levels in a dose-dependent manner; also recorded: dose-dependently induced GLT-1 and GLAST at the mRNA level
- LPS-induced MIP-2 (CXCL2) release (MIP-2 (CXCL2)): reversed by co-treatment with propentofylline; also recorded: significantly attenuated
- LPS-induced MCP-1 (CCL2) release (MCP-1 (CCL2); LPS 1 μg/ml, propentofylline 1000 μM, db-cAMP 250 μM): reversed by co-treatment with propentofylline; also recorded: significantly attenuated
- basal MCP-1 (CCL2) release, treatment alone (MCP-1 (CCL2); without LPS): had no effect
- mechanical allodynia (paw withdrawals to 12 g von Frey filament) ([1]; 10 μg daily via lumbar puncture, from one hour prior to transection, vs. L5 saline): significant decrease in mechanical allodynia; also recorded: robustly inhibited the development of mechanical allodynia at all time points tested
- mechanical allodynia compared with normal group ([1]; from day 5 onward (day 5, 7, 9 and 12), P>0.05): no longer discernable from the normal group
- GLT-1 immunoreactivity in dorsal horn (GLT-1): no qualitative difference in GLT-1 between ipsilateral and contralateral dorsal horns
